From patent US10052320B2, “Substituted quinoxalines as FGFR kinase inhibitors” (ASTEX THERAPEUTICS LIMITED, priority 2011, dated 2018)
pIC50: −log10 of the molar value. Like-named read-outs stand apart in the source and are kept apart here.

Legend:
FGFR4 (h) = FGFR4 (h) (Homo sapiens, UniProt P22455); assay: FGFR4 (enzymatic assay), TR-FRET; type: biochemical; conditions: read-out: FGFR 4 pIC50 (converted)
Method: In a final reaction volume of 30 μL, FGFR4 (h) (60 ng/ml) was incubated with 50 mM HEPES pH 7.5, 6 mM MnCl2, 1 mM DTT, 0.1 mM Na3VO4, 0.01% Triton-X-100, 500 nM Btn-Flt3 and 5 μM ATP in the presence of compound (1% DMSO final). […] Time-Resolved Fluorescence Resonance Energy Transfer (TR-FRET) signal (ex340 nm. Em 620 nm, em 655 nm) was measured afterwards and results are expressed in RFU (Relative Fluorescence Units).

[1] = molecular target: Ba/F3-KDR-transfected cells (Homo sapiens, UniProt P35968); assay: Ba/F3-KDR (minus IL3) cellular proliferation assay, Alamar Blue; type: cell-based; conditions: minus IL3
Outline: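 Fluorescence (ex 540, em 590 nm) from resazurin reduction, read after 4 h with Alamar Blue, reports viability of Ba/F3-KDR cells after 24 h of compound treatment at 37 °C. Counterscreen wells also contained 10 ng/ml murine IL3.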

[2] = molecular target: Ba/F3-FGFR4-transfected cells (Homo sapiens, UniProt P22455); assay: Ba/F3-FGFR4 cellular proliferation assay, Alamar Blue; type: cell-based
Outline: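 Ba/F3 cells transfected with FGFR4, 20000 cells/well in phenol red-free RPMI-1640 with 10% FBS, were exposed to compound for 24 h at 37° C, 5% CO2. Alamar Blue (resazurin) was then added for 4 h, and fluorescence was read at ex 540/em 590 nm.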

KDR (h) (VEGFR2) = KDR (h) (VEGFR2) (Homo sapiens, UniProt P35968); assay: KDR (VEGFR2) (enzymatic assay), TR-FRET; type: biochemical
Outline: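 Read-out is TR-FRET (ex 340 nm, em 620 and 655 nm) in RFU, after an EDTA stop carrying Eu-labelled anti-phosphotyrosine and SA-XL-665 (60 min, RT). The preceding kinase reaction ran 120 min at RT with 150 ng/ml enzyme, 500 nM Btn-Flt3 and 3 μM ATP.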

[3] = tested on: Ba/F3-FGFR1-transfected cells in the presence of 10 ng/ml murine IL3; assay: Ba/F3-FGFR1 (plus IL3) cellular proliferation counterscreen, Alamar Blue; type: cell-based; conditions: Mus musculus
Outline: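 24 h cmpd exposure, 37 °C/5% CO2; phenol red-free RPMI-1640, 10% FBS; 20000 cells/well (384) or 10000 cells/well (96); Alamar Blue (0.15 mM resazurin) 4 h; RFU ex 540/em 590.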

[4] = plus IL3, 384 well, read-out: BAF3-FGFR 1 (PLUS IL3) 384 well pIC50 (converted)

KDR (h) (VEGFR2), sequence (P35968 20-1356): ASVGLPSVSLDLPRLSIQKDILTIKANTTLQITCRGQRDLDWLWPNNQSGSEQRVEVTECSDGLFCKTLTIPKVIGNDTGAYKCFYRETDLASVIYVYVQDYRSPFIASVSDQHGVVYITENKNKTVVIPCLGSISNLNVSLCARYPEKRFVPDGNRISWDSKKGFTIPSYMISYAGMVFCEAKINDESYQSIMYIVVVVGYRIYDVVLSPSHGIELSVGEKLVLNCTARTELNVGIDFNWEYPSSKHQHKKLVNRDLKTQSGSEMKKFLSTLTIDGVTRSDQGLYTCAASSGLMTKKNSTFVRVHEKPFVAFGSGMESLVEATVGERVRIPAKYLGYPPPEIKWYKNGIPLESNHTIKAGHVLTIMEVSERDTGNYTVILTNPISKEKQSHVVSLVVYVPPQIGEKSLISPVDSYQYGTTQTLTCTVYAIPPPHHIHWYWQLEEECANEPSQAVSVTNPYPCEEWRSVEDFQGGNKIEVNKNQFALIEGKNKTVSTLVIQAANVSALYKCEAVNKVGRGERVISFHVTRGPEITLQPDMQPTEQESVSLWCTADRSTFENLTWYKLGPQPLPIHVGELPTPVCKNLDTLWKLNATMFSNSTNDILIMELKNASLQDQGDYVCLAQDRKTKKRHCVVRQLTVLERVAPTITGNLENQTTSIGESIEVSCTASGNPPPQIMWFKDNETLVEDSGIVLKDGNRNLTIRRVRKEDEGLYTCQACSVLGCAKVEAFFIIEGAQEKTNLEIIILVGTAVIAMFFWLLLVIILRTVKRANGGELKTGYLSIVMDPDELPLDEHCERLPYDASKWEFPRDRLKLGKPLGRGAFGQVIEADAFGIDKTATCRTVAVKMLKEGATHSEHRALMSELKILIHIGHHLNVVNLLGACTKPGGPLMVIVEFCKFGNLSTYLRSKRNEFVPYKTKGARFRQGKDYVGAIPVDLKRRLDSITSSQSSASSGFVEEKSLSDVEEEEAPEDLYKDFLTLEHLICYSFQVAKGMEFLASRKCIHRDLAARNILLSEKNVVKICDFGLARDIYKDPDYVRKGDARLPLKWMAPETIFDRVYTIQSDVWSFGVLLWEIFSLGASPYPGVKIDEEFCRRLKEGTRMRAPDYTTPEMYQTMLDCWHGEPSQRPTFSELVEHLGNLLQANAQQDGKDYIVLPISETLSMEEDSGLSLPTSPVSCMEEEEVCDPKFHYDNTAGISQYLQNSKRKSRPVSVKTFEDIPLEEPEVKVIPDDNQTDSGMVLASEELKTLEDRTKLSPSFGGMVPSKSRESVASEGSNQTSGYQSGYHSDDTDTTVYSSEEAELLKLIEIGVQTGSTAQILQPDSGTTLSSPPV
Ba/F3-KDR-transfected cells, sequence (P35968 whole entry, change not shown): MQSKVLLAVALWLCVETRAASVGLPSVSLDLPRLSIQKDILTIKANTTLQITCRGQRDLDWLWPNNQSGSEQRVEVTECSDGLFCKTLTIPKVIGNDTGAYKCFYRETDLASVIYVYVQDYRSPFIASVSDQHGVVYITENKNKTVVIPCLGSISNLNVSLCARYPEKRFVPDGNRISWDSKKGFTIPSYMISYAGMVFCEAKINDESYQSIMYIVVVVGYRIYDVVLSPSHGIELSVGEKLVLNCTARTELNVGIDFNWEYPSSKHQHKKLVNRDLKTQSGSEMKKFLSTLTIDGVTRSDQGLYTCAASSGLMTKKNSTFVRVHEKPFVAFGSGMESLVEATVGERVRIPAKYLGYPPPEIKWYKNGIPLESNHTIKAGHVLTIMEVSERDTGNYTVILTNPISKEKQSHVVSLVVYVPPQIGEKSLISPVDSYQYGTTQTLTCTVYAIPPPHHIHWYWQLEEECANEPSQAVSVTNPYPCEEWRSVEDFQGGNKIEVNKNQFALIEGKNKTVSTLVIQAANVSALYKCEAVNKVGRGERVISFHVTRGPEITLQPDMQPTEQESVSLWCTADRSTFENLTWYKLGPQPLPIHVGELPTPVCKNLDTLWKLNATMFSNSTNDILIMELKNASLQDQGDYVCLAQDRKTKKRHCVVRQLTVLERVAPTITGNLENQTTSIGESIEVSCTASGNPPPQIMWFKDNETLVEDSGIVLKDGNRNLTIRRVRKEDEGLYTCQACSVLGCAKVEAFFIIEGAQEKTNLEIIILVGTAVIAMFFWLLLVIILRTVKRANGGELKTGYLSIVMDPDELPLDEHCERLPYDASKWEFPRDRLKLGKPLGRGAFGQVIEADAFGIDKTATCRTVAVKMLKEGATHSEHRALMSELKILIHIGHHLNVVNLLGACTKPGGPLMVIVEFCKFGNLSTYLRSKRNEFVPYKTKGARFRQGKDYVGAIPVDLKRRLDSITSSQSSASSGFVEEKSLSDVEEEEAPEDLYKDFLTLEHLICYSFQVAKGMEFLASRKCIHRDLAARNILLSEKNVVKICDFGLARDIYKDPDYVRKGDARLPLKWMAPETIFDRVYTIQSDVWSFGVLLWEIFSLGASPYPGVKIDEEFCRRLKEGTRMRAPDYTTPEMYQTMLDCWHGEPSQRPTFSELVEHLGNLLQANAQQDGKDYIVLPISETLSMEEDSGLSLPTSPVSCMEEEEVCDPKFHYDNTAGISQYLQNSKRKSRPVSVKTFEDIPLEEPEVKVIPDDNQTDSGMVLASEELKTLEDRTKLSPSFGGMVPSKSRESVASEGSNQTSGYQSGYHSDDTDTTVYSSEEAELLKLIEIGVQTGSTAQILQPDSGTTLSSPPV
Ba/F3-FGFR4-transfected cells, sequence (P22455 whole entry, change not shown): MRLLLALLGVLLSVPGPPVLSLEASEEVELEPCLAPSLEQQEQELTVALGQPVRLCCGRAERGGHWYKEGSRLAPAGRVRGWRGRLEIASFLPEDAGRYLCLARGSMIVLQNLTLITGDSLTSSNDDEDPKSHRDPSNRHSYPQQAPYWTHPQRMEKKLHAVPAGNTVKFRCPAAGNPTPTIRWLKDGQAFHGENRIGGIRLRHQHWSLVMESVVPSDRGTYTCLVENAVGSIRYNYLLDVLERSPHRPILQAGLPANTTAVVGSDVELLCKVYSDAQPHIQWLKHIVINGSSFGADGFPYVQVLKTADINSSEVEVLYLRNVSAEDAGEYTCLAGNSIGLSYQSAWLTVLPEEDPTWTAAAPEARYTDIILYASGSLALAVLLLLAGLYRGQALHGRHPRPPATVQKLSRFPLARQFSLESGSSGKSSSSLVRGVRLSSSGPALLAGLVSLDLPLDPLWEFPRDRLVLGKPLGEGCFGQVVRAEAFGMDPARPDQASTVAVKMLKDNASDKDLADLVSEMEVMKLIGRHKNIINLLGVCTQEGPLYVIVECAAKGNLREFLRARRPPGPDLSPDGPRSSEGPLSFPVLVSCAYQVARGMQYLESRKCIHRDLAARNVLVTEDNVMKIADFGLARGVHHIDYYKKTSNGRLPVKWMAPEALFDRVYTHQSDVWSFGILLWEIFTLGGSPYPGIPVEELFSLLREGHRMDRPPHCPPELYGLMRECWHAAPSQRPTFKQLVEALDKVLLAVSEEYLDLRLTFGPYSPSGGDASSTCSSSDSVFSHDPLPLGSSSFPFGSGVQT
FGFR4 (h), sequence (P22455 22-802): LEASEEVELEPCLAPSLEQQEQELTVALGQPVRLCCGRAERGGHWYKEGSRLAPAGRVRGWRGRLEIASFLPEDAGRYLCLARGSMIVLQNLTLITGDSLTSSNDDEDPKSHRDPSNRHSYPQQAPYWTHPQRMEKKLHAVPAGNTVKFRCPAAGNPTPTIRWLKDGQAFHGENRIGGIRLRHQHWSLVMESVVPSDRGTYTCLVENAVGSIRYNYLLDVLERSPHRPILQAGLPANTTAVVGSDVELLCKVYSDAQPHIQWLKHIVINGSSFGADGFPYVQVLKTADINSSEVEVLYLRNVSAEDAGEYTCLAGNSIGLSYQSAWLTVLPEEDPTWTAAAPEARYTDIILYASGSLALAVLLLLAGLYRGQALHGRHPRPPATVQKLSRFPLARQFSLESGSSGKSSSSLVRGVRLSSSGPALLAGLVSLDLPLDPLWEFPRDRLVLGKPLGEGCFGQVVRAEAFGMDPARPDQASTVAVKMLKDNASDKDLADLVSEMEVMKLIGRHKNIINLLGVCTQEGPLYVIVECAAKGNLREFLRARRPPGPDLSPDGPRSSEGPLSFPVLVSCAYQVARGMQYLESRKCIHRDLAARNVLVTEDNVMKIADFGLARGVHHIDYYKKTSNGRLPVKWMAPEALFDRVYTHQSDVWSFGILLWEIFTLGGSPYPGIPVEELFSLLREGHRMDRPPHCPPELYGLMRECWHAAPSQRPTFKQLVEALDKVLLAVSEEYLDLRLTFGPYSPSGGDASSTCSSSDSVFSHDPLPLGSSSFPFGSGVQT

CNC(=O)OCCN(c1cc(OC)cc(OC)c1)c1ccc2ncc(-c3ccc(NC(=O)OC(C)(C)C)nc3)nc2c1 [Compound 80]
IC50 (FGFR4 (h)): > 1000 nM
BAF3-KDR (MIN IL3) 384 well pIC50 [1]: <5
BAF3-FGFR4 pIC50 [2]: <5
pIC50 (KDR (h) (VEGFR2)): < 6.00
IC50 [3, 4]: > 10000 nM

COc1cc(OC)cc(N(CC2CC2)c2ccc3ncc(-c4nnnn4C)nc3c2)c1 [Compound 83]
IC50 (FGFR4 (h)): > 1000 nM
BAF3-KDR (MIN IL3) 96 well pIC50 [1]: <5
BAF3-KDR (MIN IL3) 384 well pIC50 [1]: <5
BAF3-FGFR4 pIC50 [2]: <5
pIC50 (KDR (h) (VEGFR2)): < 6.00
IC50 ([3]; plus IL3, 96 well, read-out: BAF3-FGFR 1 (PLUS IL3) 96 well pIC50 (converted)): > 10000 nM
IC50 [3, 4]: > 10000 nM

COc1cc(OC)cc(N(CC2CC2)c2ccc3ncc(-c4ocnc4C)nc3c2)c1 [Compound 104]
IC50 (FGFR4 (h)): 575 nM
BAF3-KDR (MIN IL3) 384 well pIC50 [1]: <5
BAF3-FGFR4 pIC50 [2]: <5
pIC50 (KDR (h) (VEGFR2)): < 6.00
IC50 [3, 4]: > 10000 nM

COc1cc(OC)cc(N(CC2CO2)c2ccc3ncc(-c4ccc(N)nc4)nc3c2)c1 (stereo not drawn) [Compound 110]
IC50 (FGFR4 (h)): 145 nM
BAF3-KDR (MIN IL3) 384 well pIC50 [1]: 5.45
BAF3-FGFR4 pIC50 [2]: 6.2
pIC50 (KDR (h) (VEGFR2)): 6.56
IC50 [3, 4]: > 10000 nM

COc1cc(OC)cc(N(CCO)c2ccc3ncc(-c4ccc(OC)nc4)nc3c2)c1 [Compound 111]
IC50 (FGFR4 (h)): 70.8 nM
BAF3-KDR (MIN IL3) 384 well pIC50 [1]: <5
BAF3-FGFR4 pIC50 [2]: 5.9
pIC50 (KDR (h) (VEGFR2)): 6.13
IC50 [3, 4]: > 10000 nM

COc1cc(OC)cc(N(CCCO)c2ccc3ncc(-c4cccnc4)nc3c2)c1 [Compound 112]
IC50 (FGFR4 (h)): 58.9 nM
BAF3-KDR (MIN IL3) 384 well pIC50 [1]: <5
BAF3-FGFR4 pIC50 [2]: 5.8
pIC50 (KDR (h) (VEGFR2)): 6.33
IC50 [3, 4]: > 10000 nM

CNc1ccc(-c2cnc3ccc(N(CCCO)c4cc(OC)cc(OC)c4)cc3n2)cn1 [Compound 116]
IC50 (FGFR4 (h)): 17.8 nM
BAF3-KDR (MIN IL3) 384 well pIC50 [1]: 5.19
BAF3-FGFR4 pIC50 [2]: 6.4
pIC50 (KDR (h) (VEGFR2)): 6.87
IC50 [3, 4]: > 10000 nM

COc1cc(OC)cc(N(CCCO)c2ccc3ncc(-c4ccc(F)nc4)nc3c2)c1 [Compound 117]
IC50 (FGFR4 (h)): 87.1 nM
BAF3-KDR (MIN IL3) 384 well pIC50 [1]: <5
BAF3-FGFR4 pIC50 [2]: 5.5
pIC50 (KDR (h) (VEGFR2)): 6.04
IC50 [3, 4]: > 10000 nM

COc1cc(OC)cc(N(CCO)c2ccc3ncc(-c4ccccc4)nc3c2)c1 [Compound 120]
IC50 (FGFR4 (h)): 20 nM
BAF3-KDR (MIN IL3) 384 well pIC50 [1]: <5
BAF3-FGFR4 pIC50 [2]: 6.0
pIC50 (KDR (h) (VEGFR2)): 6.58
IC50 [3, 4]: > 10000 nM

CNC(=O)c1cc(-c2cnc3ccc(N(CCCNCC(F)(F)F)c4cc(OC)cc(OC)c4)cc3n2)ccn1 [Compound 122]
IC50 (FGFR4 (h)): 316 nM
BAF3-KDR (MIN IL3) 384 well pIC50 [1]: <5
BAF3-FGFR4 pIC50 [2]: ~5.1
pIC50 (KDR (h) (VEGFR2)): < 6.00
IC50 [3, 4]: > 10000 nM

COc1cc(OC)cc(N(CCO)c2ccc3ncc(-c4ccnc(C(=O)NCCCN)c4)nc3c2)c1 [Compound 123]
IC50 (FGFR4 (h)): 245 nM
BAF3-KDR (MIN IL3) 384 well pIC50 [1]: <5
BAF3-FGFR4 pIC50 [2]: 5.2
pIC50 (KDR (h) (VEGFR2)): 6.24
IC50 [3, 4]: > 10000 nM

COc1cc(OC)cc(N(CCCO)c2ccc3ncc(-c4ccc(N5CCOCC5)nc4)nc3c2)c1 [Compound 124]
IC50 (FGFR4 (h)): 33.1 nM
BAF3-KDR (MIN IL3) 384 well pIC50 [1]: 5.11
BAF3-FGFR4 pIC50 [2]: 6.1
pIC50 (KDR (h) (VEGFR2)): 6.99
IC50 [3, 4]: > 10000 nM

COc1cc(OC)cc(N(CCCNCC(F)(F)F)c2ccc3ncc(-c4ccc(N(C)C(=O)OC(C)(C)C)nc4)nc3c2)c1 [Compound 127]
IC50 (FGFR4 (h)): 912 nM
BAF3-KDR (MIN IL3) 384 well pIC50 [1]: <5
BAF3-FGFR4 pIC50 [2]: <5
pIC50 (KDR (h) (VEGFR2)): < 6.00
IC50 [3, 4]: > 10000 nM

COc1cc(OC)cc(N(CCCO)c2ccc3ncc(-c4ccnc(NC(=O)OC(C)(C)C)c4)nc3c2)c1 [Compound 128]
IC50 (FGFR4 (h)): > 1000 nM
BAF3-KDR (MIN IL3) 384 well pIC50 [1]: <5
BAF3-FGFR4 pIC50 [2]: <5
pIC50 (KDR (h) (VEGFR2)): < 6.00
IC50 [3, 4]: > 10000 nM
